Test results: ChEMBL document CHEMBL4219190, “Studies on synthesis of novel pyrido[2,3-d]pyrimidine derivatives, evaluation of their antimicrobial activity and molecular docking” (Bioorg Med Chem Lett, 2018)
In brackets after ≈: the same amount, converted by molar mass. Activity calls are given as the source filed them. No cut-off for these calls is given here.

Experiments:
Staphylococcus aureus [1] = test: Antibacterial activity against Staphylococcus aureus MTCC 96 after 24 hrs by well diffusion method; type: functional
Bacillus subtilis [2] = test: Antibacterial activity against Bacillus subtilis MTCC 121 after 24 hrs by well diffusion method; type: functional
Raoultella planticola [3] = test: Antibacterial activity against Klebsiella planticola MTCC 530 after 24 hrs by well diffusion method; type: functional
Micrococcus luteus [4] = test: Antibacterial activity against Micrococcus luteus MTCC 2470 after 24 hrs by well diffusion method; type: functional
Escherichia coli [5] = test: Antibacterial activity against Escherichia coli MTCC 739 after 24 hrs by well diffusion method; type: functional
Staphylococcus aureus [6] = test: Antibacterial activity against Staphylococcus aureus MLS16 MTCC 2940 after 24 hrs by well diffusion method; type: functional
Pseudomonas aeruginosa [7] = test: Antibacterial activity against Pseudomonas aeruginosa MTCC 2453 after 24 hrs by well diffusion method; type: functional
Staphylococcus aureus [8] = test: Bactericidal activity against Staphylococcus aureus MLS16 MTCC 2940 incubated for 24 hrs followed by transfer of microbial suspension to Mueller Hinton agar plates and measured after 24 hrs post transfer; type: functional
Staphylococcus aureus [9] = test: Antibiofilm activity against Staphylococcus aureus MTCC 96 after 24 hrs by crystal violet staining-based assay; type: functional, organism-based
Staphylococcus aureus [10] = test: Bactericidal activity against Staphylococcus aureus MTCC 96 incubated for 24 hrs followed by transfer of microbial suspension to Mueller Hinton agar plates and measured after 24 hrs post transfer; type: functional
Staphylococcus aureus [11] = test: Antibiofilm activity against Staphylococcus aureus MLS16 MTCC 2940 after 24 hrs by crystal violet staining-based assay; type: functional, organism-based
Bacillus subtilis [12] = test: Antibiofilm activity against Bacillus subtilis MTCC 121 after 24 hrs by crystal violet staining-based assay; type: functional, organism-based
Micrococcus luteus [13] = test: Bactericidal activity against Micrococcus luteus MTCC 2470 incubated for 24 hrs followed by transfer of microbial suspension to Mueller Hinton agar plates and measured after 24 hrs post transfer; type: functional
Raoultella planticola [14] = test: Antibiofilm activity against Klebsiella planticola MTCC 530 after 24 hrs by crystal violet staining-based assay; type: functional, organism-based
Escherichia coli [15] = test: Bactericidal activity against Escherichia coli MTCC 739 incubated for 24 hrs followed by transfer of microbial suspension to Mueller Hinton agar plates and measured after 24 hrs post transfer; type: functional
Pseudomonas aeruginosa [16] = test: Antibiofilm activity against Pseudomonas aeruginosa MTCC 2453 after 24 hrs by crystal violet staining-based assay; type: functional, organism-based
Bacillus subtilis [17] = test: Bactericidal activity against Bacillus subtilis MTCC 121 incubated for 24 hrs followed by transfer of microbial suspension to Mueller Hinton agar plates and measured after 24 hrs post transfer; type: functional
Raoultella planticola [18] = test: Bactericidal activity against Klebsiella planticola MTCC 530 incubated for 24 hrs followed by transfer of microbial suspension to Mueller Hinton agar plates and measured after 24 hrs post transfer; type: functional
Pseudomonas aeruginosa [19] = test: Bactericidal activity against Pseudomonas aeruginosa MTCC 2453 incubated for 24 hrs followed by transfer of microbial suspension to Mueller Hinton agar plates and measured after 24 hrs post transfer; type: functional
[20] = Staphylococcus aureus, MTCC 96, 24 h, read-out: IC50
[21] = Klebsiella planticola, MTCC 530, 24 h, read-out: IC50

Row | MIC (Staphylococcus aureus [1]) | MIC (Bacillus subtilis [2]) | MIC (Micrococcus luteus [4]) | MIC (Escherichia coli [5]) | MIC (Staphylococcus aureus [6]) | MIC (Pseudomonas aeruginosa [7]) | IC50 (Staphylococcus aureus [9]; [20]) | MIC (Staphylococcus aureus [1]; MTCC 96, 24 h) | IC50 (Staphylococcus aureus [11]) | IC50 (Bacillus subtilis [12]) | IC50 (Pseudomonas aeruginosa [16]) | SMILES | MIC (Raoultella planticola [3]) | MIC (Raoultella planticola [3]; MTCC 530, 24 h) | MBC (Staphylococcus aureus [10]; MTCC 96, 24 h) | IC50 (Raoultella planticola [14]; [21]) | MBC (Raoultella planticola [18]; MTCC 530, 24 h) | MBC (Staphylococcus aureus [8]) | MBC (Micrococcus luteus [13]) | MBC (Escherichia coli [15]) | MBC (Bacillus subtilis [17]) | further results
1 | inactive | inactive | inactive | inactive | inactive | inactive |  |  |  |  |  | COc1ccc(-c2nc(C(=O)NCc3ccco3)nc3nc(-c4ccccc4)cc(C(F)(F)F)c23)cc1 | inactive |  |  |  |  |  |  |  |  | 
2 | inactive | inactive | inactive | inactive | inactive | inactive |  |  |  |  |  | COc1ccc(-c2nc(C(=O)NCCO)nc3nc(-c4ccccc4)cc(C(F)(F)F)c23)cc1 | inactive |  |  |  |  |  |  |  |  | 
3 | inactive | inactive | inactive | inactive | inactive | inactive |  |  |  |  |  | COc1ccc(-c2nc(C(=O)N3CCN(CCO)CC3)nc3nc(-c4ccccc4)cc(C(F)(F)F)c23)cc1 | inactive |  |  |  |  |  |  |  |  | 
4 | inactive | inactive | inactive | inactive | inactive | inactive |  |  |  |  |  | COc1ccc(-c2nc(C(=O)NCc3ccccc3)nc3nc(-c4ccccc4)cc(C(F)(F)F)c23)cc1 | inactive |  |  |  |  |  |  |  |  | 
5 | inactive | inactive | inactive | inactive | inactive | inactive |  |  |  |  |  | CCNC(=O)c1nc(-c2ccccc2)c2c(C(F)(F)F)cc(-c3ccccc3)nc2n1 |  | 31.2 µg/mL (≈ 73.9 µM) |  |  |  |  |  |  |  | 
6 |  | inactive | inactive | inactive | inactive | inactive | 2.7 µg/mL (≈ 5.69 µM) | 7.8 µg/mL (≈ 16.4 µM) | Not Active | Not Active | Not Active | O=C(NCc1ccco1)c1nc(-c2ccccc2)c2c(C(F)(F)F)cc(-c3ccccc3)nc2n1 |  | 15.6 µg/mL (≈ 32.9 µM) | 15.6 µg/mL (≈ 32.9 µM) | 5.4 µg/mL (≈ 11.4 µM) | 31.2 µg/mL (≈ 65.8 µM) | inactive | inactive | inactive | inactive | MBC (Pseudomonas aeruginosa [19]): inactive
7 |  | inactive | inactive | inactive | inactive | inactive | 2.7 µg/mL (≈ 5.33 µM) | 7.8 µg/mL (≈ 15.4 µM) | Not Active | Not Active | Not Active | COc1ccc(-c2nc(C(=O)NC3CCCCC3)nc3nc(-c4ccccc4)cc(C(F)(F)F)c23)cc1 | inactive |  | 7.8 µg/mL (≈ 15.4 µM) |  |  | inactive | inactive | inactive | inactive | IC50 (Raoultella planticola [14]): Not Active; MBC (Raoultella planticola [18]): inactive; MBC (Pseudomonas aeruginosa [19]): inactive
8 | inactive | inactive | inactive | inactive | inactive | inactive |  |  |  |  |  | CCCNC(=O)c1nc(-c2ccc(OC)cc2)c2c(C(F)(F)F)cc(-c3ccccc3)nc2n1 | inactive |  |  |  |  |  |  |  |  | 
9 | inactive | inactive | inactive | inactive | inactive | inactive |  |  | Not Active | Not Active | Not Active | COc1ccc(-c2nc(C(=O)N3CCCC3)nc3nc(-c4ccccc4)cc(C(F)(F)F)c23)cc1 |  | 15.6 µg/mL (≈ 32.6 µM) |  | 10.8 µg/mL (≈ 22.6 µM) | 15.6 µg/mL (≈ 32.6 µM) | inactive | inactive | inactive | inactive | IC50 (Staphylococcus aureus [9]): Not Active; MBC (Staphylococcus aureus [10]): inactive; MBC (Pseudomonas aeruginosa [19]): inactive

Row | SMILES | MIC (Staphylococcus aureus [1]) | MIC (Bacillus subtilis [2]) | MIC (Micrococcus luteus [4]) | MIC (Escherichia coli [5]) | MIC (Staphylococcus aureus [6]) | MIC (Pseudomonas aeruginosa [7]) | IC50 (Staphylococcus aureus [9]; [20]) | MIC (Staphylococcus aureus [1]; MTCC 96, 24 h) | IC50 (Staphylococcus aureus [11]) | IC50 (Bacillus subtilis [12]) | IC50 (Pseudomonas aeruginosa [16]) | MIC (Raoultella planticola [3]) | MIC (Raoultella planticola [3]; MTCC 530, 24 h) | MBC (Staphylococcus aureus [10]; MTCC 96, 24 h) | IC50 (Raoultella planticola [14]; [21]) | MBC (Raoultella planticola [18]; MTCC 530, 24 h) | MBC (Staphylococcus aureus [8]) | MBC (Micrococcus luteus [13]) | MBC (Escherichia coli [15]) | MBC (Bacillus subtilis [17]) | further results
10 | O=C(O)c1cn(C2CC2)c2cc(N3CCNCC3)c(F)cc2c1=O [CIPROFLOXACIN] |  |  |  |  |  |  | 0.21 µg/mL (≈ 0.634 µM) | 0.9 µg/mL (≈ 2.72 µM) |  |  |  |  | 0.9 µg/mL (≈ 2.72 µM) | 0.58 µg/mL (≈ 1.75 µM) | 0.29 µg/mL (≈ 0.875 µM) | 0.58 µg/mL (≈ 1.75 µM) |  |  |  |  | MBC (Staphylococcus aureus [8]; MLS16 MTCC 2940, 24 h): 1.17 µg/mL (≈ 3.53 µM); MIC (Bacillus subtilis [2]; MTCC 121, 24 h): 0.9 µg/mL (≈ 2.72 µM); IC50 (Staphylococcus aureus [11]; Staphylococcus aureus, MLS16 MTCC 2940, 24 h, read-out: IC50): 0.24 µg/mL (≈ 0.724 µM); MIC (Micrococcus luteus [4]; MTCC 2470, 24 h): 0.9 µg/mL (≈ 2.72 µM); MIC (Escherichia coli [5]; MTCC 739, 24 h): 0.9 µg/mL (≈ 2.72 µM); MIC (Staphylococcus aureus [6]; MLS16 MTCC 2940, 24 h): 0.9 µg/mL (≈ 2.72 µM); IC50 (Bacillus subtilis [12]; Bacillus subtilis, MTCC 121, 24 h, read-out: IC50): 0.23 µg/mL (≈ 0.694 µM); MBC (Micrococcus luteus [13]; MTCC 2470, 24 h): 1.17 µg/mL (≈ 3.53 µM); MBC (Escherichia coli [15]; MTCC 739, 24 h): 0.58 µg/mL (≈ 1.75 µM); IC50 (Pseudomonas aeruginosa [16]; Pseudomonas aeruginosa, MTCC 2453, 24 h, read-out: IC50): 0.32 µg/mL (≈ 0.966 µM); MIC (Pseudomonas aeruginosa [7]; MTCC 2453, 24 h): 0.9 µg/mL (≈ 2.72 µM); MBC (Bacillus subtilis [17]; MTCC 121, 24 h): 0.58 µg/mL (≈ 1.75 µM); MBC (Pseudomonas aeruginosa [19]; MTCC 2453, 24 h): 1.17 µg/mL (≈ 3.53 µM)
